# In ChEMBL document CHEMBL3414430 (J Med Chem, 2015):
# Active and inactive are the calls of the source. The calls are words filed in the database; no cut-off is given here.
# Legend:
# [1] = Half life in ICR mouse at 25 mg/kg, iv; type: ADME, organism-based; design: dose 25 mg/kg, route intravenous; settings: in vivo
# [2] = target: Histone deacetylase 1/2/3/6 (Homo sapiens) (UniProt Q13547+O15379+Q9UBN7+Q92769); settings: HeLa, at 10 µM
# Description: Inhibition of HDAC1/HDAC2/HDAC3 in human HeLa cells assessed as induction of p21 gene expression at 10 uM after 15 hrs by luciferase reporter gene assay relative to HDAC1 inhibitor SNDX-275
# Histone deacetylase 1 = Histone deacetylase 1 (Homo sapiens, UniProt Q13547)
# Description: Inhibition of HDAC1 (unknown origin) using RHKK(Ac)AMC as substrate
# [3] = Intrinsic clearance in human liver microsomes at 1 uM preincubated for 10 mins followed by NADPH addition measured over 30 mins by LC-MS/MS analysis; type: ADME; settings: read-out: CLH
# [4] = Oral bioavailability in ICR mouse at 50 mg/kg; type: ADME, organism-based; settings: in vivo
# [5] = Intrinsic clearance in mouse liver microsomes at 1 uM preincubated for 10 mins followed by NADPH addition measured over 30 mins by LC-MS/MS analysis; type: ADME; settings: read-out: CLH
# Mus musculus [6] = experiment: AUC (0 to infinity) in ICR mouse at 25 mg/kg, iv; type: ADME, organism-based, Plasma; design: time infinity, dose 25 mg/kg, route intravenous; settings: in vivo
# [7] = Cmax in ICR mouse at 50 mg/kg, po; type: ADME, organism-based; design: dose 50 mg/kg, route oral; settings: in vivo
# Mus musculus [8] = experiment: AUC (0 to infinity) in ICR mouse at 50 mg/kg, po; type: ADME, organism-based, Plasma; design: time infinity, dose 50 mg/kg, route oral; settings: in vivo
# [9] = Solubility of the compound in PBS measured after overnight incubation by LYSA assay; type: physicochemical
# [10] = target: T1, Protein deacetylase HDAC6 (Homo sapiens, UniProt Q9UBN7)
# T1 sequence (Q9UBN7 whole entry): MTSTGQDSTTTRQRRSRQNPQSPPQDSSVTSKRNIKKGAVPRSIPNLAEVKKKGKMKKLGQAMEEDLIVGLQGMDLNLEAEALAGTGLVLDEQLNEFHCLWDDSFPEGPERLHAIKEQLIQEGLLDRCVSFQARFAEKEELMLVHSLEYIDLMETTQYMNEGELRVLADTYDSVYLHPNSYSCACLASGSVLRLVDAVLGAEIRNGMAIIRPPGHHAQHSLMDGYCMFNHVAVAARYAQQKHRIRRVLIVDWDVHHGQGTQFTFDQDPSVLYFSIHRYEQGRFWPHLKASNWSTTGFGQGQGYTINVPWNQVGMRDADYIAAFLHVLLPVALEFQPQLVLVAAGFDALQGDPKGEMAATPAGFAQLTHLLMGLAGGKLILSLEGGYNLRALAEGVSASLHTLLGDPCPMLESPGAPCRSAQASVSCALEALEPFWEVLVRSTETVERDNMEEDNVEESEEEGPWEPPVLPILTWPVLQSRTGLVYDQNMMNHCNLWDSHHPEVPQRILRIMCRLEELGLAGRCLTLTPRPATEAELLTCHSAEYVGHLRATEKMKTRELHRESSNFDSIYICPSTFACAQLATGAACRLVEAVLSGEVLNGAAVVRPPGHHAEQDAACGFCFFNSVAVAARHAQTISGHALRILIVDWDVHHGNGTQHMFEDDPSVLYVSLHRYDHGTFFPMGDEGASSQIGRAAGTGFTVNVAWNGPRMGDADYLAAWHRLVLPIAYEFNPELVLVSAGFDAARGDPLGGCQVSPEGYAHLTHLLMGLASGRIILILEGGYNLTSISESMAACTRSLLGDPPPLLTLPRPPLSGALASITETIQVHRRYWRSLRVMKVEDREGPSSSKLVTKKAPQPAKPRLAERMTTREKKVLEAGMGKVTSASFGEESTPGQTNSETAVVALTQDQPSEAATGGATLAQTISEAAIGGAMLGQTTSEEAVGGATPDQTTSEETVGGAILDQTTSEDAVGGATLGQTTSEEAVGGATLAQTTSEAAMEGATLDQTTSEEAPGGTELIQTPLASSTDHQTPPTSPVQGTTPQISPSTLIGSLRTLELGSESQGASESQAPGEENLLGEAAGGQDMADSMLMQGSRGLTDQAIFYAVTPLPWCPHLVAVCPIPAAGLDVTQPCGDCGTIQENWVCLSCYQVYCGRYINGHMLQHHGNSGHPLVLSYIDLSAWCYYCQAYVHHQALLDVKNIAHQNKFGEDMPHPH
# Description: Inhibition of HDAC6 (unknown origin) using RHKK(Ac)AMC as substrate
# Histone deacetylase 8 = target: T2, Histone deacetylase 8 (Homo sapiens, UniProt Q9BY41)
# T2 sequence (Q9BY41 whole entry): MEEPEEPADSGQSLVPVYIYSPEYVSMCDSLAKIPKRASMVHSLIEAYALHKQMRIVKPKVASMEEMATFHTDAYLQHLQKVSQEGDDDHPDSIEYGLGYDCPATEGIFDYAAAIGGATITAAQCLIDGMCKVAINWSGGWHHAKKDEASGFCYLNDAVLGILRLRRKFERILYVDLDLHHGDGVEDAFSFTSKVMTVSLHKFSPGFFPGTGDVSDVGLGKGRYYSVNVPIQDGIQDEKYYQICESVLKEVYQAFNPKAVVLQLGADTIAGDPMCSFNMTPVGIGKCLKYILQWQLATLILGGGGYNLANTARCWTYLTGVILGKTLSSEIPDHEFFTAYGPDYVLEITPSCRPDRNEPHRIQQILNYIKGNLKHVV
# Description: Inhibition of HDAC8 (unknown origin) using RHK(Ac)K(Ac)AMC as substrate
# [11] = Plasma clearance in ICR mouse; type: ADME, organism-based
# Cytochrome P450 2C19 = Cytochrome P450 2C19 (Homo sapiens, UniProt P33261); experiment: Inhibition of CYP2C19 in human liver microsomes preincubated for 10 mins followed by NADPH addition measured after 30 mins by LC-MS/MS analysis; type: ADME
# Cytochrome P450 2D6 = Cytochrome P450 2D6 (Homo sapiens, UniProt P10635); experiment: Inhibition of CYP2D6 in human liver microsomes preincubated for 10 mins followed by NADPH addition measured after 30 mins by LC-MS/MS analysis; type: ADME
# Cytochrome P450 1A2 = target: T3, Cytochrome P450 1A2 (Homo sapiens, UniProt P05177); experiment: Inhibition of CYP1A2 in human liver microsomes preincubated for 10 mins followed by NADPH addition measured after 30 mins by LC-MS/MS analysis; type: ADME
# T3 sequence (P05177 whole entry): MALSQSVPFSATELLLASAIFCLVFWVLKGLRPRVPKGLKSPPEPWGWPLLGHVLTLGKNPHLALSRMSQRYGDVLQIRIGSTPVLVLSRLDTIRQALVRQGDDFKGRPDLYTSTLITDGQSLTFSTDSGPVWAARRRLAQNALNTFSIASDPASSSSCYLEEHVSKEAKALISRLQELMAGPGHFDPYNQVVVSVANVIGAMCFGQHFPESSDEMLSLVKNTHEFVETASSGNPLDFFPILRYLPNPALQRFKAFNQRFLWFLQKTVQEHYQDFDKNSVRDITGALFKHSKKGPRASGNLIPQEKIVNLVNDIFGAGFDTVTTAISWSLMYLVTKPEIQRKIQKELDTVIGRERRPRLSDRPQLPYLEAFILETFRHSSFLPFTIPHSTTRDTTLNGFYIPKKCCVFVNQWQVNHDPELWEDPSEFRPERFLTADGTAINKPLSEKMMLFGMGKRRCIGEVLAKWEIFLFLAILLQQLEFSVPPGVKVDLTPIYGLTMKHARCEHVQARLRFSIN
# Cytochrome P450 2C9 = Cytochrome P450 2C9 (Homo sapiens, UniProt P11712); experiment: Inhibition of CYP2C9 in human liver microsomes preincubated for 10 mins followed by NADPH addition measured after 30 mins by LC-MS/MS analysis; type: ADME
# [12] = target: T1, Protein deacetylase HDAC6; remark: listed apart in the source
# Description: Inhibition of HDAC6 in human A549 cells assessed as induction of tubulin acetylation after 17 to 18 hrs by ELISA
# Mus musculus [13] = experiment: AUC (0 to infinity) in ICR mouse at 100 mg/kg, po; type: ADME, organism-based, Plasma; design: time infinity, dose 100 mg/kg, route oral; settings: in vivo
# [14] = Oral bioavailability in ICR mouse at 100 mg/kg; type: ADME, organism-based; settings: in vivo
# Cytochrome P450 3A4 = Cytochrome P450 3A4 (Homo sapiens, UniProt P08684); experiment: Inhibition of CYP3A4 in human liver microsomes preincubated for 10 mins followed by NADPH addition measured after 30 mins by LC-MS/MS analysis; type: ADME
# [15] = Cmax in ICR mouse at 100 mg/kg, po; type: ADME, organism-based; design: dose 100 mg/kg, route oral; settings: in vivo
# Mus musculus [16] = experiment: AUC (0 to infinity) in ICR mouse at 10 mg/kg, iv; type: ADME, organism-based, Plasma; design: time infinity, dose 10 mg/kg, route intravenous; settings: in vivo
# [17] = Half life in ICR mouse at 10 mg/kg, iv; type: ADME, organism-based; design: dose 10 mg/kg, route intravenous; settings: in vivo
# Sequence of Histone deacetylase 1 (Q13547 whole entry): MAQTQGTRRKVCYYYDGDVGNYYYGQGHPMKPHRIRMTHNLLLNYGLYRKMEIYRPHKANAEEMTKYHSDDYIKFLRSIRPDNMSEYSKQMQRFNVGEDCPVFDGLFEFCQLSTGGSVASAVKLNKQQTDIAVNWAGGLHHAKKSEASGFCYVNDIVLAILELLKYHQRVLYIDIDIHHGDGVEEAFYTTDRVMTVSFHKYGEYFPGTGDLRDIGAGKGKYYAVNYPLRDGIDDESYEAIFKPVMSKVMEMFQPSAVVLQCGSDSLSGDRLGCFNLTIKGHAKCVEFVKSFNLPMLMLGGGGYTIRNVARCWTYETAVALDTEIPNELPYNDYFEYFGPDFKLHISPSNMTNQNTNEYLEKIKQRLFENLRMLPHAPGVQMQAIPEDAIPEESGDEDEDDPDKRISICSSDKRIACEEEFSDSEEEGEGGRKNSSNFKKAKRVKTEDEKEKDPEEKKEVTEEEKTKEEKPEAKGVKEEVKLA
# Sequence of Cytochrome P450 3A4 (P08684 whole entry): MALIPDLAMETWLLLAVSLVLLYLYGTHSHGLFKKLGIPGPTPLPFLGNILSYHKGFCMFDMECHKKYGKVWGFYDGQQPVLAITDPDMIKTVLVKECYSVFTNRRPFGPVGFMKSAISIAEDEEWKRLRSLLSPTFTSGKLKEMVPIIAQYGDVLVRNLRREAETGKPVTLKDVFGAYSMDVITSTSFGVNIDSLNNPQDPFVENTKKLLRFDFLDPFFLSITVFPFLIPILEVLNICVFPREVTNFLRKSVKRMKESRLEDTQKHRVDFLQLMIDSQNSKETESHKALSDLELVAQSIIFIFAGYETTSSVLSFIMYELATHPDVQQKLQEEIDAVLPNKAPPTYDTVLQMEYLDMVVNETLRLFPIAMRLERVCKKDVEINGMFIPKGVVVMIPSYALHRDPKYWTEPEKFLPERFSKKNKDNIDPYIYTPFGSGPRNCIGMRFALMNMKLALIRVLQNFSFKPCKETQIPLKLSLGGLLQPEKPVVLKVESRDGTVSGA
# Sequence of Cytochrome P450 2C19 (P33261 whole entry): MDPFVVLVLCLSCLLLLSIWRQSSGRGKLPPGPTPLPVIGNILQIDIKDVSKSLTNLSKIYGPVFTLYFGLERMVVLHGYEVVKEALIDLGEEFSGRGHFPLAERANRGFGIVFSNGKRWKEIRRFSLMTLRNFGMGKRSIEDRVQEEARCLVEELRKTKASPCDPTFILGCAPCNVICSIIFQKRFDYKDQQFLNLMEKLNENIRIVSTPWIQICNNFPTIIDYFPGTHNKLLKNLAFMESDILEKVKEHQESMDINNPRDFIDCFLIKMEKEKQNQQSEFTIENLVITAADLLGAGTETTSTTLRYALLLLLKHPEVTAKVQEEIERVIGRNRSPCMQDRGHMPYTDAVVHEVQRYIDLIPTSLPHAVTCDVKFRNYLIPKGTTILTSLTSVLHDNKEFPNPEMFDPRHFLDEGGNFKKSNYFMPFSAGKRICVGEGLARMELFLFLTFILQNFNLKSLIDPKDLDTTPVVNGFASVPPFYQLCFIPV
# Sequence of Cytochrome P450 2D6 (P10635 whole entry): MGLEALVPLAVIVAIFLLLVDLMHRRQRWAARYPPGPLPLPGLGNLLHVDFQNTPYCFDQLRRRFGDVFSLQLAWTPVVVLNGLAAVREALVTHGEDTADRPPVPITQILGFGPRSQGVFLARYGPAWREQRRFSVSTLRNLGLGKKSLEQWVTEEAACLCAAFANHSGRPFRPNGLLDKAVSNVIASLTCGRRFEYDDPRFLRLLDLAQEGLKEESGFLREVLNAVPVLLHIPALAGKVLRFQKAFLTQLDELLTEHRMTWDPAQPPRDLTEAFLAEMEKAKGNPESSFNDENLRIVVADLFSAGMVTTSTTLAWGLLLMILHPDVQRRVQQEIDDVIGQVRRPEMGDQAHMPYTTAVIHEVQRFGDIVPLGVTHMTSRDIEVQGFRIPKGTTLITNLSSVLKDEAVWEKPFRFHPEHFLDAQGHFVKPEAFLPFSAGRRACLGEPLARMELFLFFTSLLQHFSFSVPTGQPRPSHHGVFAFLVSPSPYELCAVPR
# Sequence of Cytochrome P450 2C9 (P11712 whole entry): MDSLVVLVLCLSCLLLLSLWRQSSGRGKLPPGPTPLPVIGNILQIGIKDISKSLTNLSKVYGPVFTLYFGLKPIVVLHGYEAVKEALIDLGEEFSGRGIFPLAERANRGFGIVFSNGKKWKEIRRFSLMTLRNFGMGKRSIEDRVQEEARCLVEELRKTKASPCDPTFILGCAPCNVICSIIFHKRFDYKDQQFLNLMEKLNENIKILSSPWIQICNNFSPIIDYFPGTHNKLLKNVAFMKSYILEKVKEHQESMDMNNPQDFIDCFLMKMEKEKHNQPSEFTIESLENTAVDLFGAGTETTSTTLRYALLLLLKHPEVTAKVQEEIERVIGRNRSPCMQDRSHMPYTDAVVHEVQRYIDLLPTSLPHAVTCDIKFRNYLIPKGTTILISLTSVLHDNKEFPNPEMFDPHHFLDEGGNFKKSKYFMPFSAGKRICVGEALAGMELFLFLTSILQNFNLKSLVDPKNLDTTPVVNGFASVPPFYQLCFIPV
# Sequence of Histone deacetylase 1/2/3/6 (Homo sapiens) (O15379 whole entry, looked up, one chain of several): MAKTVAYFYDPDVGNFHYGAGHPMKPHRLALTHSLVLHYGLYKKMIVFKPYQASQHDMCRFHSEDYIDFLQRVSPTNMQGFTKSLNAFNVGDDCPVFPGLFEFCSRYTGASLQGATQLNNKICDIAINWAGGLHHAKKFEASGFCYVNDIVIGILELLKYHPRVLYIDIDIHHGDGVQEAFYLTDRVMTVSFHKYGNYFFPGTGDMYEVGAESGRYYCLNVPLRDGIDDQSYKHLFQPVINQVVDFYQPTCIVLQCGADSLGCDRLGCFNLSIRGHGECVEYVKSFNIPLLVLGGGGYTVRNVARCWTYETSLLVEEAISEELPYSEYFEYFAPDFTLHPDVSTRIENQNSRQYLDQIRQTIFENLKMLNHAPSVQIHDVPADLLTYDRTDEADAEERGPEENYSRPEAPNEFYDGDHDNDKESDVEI
# Sequence of Histone deacetylase 1/2/3/6 (Homo sapiens) (Q13547 whole entry, looked up, one chain of several): as the sequence (Q13547 whole entry) above
# Sequence of Histone deacetylase 1/2/3/6 (Homo sapiens) (Q92769 whole entry, looked up, one chain of several): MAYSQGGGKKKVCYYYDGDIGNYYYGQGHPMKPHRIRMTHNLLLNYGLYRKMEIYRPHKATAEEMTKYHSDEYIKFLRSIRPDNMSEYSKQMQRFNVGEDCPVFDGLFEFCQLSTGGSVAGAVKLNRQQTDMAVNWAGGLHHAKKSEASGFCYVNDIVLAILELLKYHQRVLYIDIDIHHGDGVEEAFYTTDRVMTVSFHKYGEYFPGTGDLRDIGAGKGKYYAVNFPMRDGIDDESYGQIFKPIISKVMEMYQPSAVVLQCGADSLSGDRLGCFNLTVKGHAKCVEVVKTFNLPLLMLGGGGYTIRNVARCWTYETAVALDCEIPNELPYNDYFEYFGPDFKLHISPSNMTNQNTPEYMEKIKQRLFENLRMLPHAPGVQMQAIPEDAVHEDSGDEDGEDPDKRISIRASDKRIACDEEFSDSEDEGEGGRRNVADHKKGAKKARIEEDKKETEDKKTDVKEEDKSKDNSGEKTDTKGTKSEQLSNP
smiles,measurement,setting,value
O=C(NO)c1ccc(NC2CCN(c3ccccc3)C2=O)cc1 (stereo unspecified),half-life,[1],0.7 h
same,inhibition,[2],inactive
same,IC50,Histone deacetylase 1,19500 nM
same,CLint scaled at 1 µM,[3],4.6 mL/min/kg
same,bioavailability,[4],≤ 1%
same,CLint scaled at 1 µM,[5],26 mL/min/kg
same,AUC,Mus musculus [6],3850 µg/L/h
same,Cmax,[7],34 ng/mL
same,AUC,Mus musculus [8],125 µg/L/h
same,solubility,[9],33 µg/mL
same,IC50,[10],380 nM
same,IC50,Histone deacetylase 8,210 nM
same,clearance,[11],108 mL/min/kg
C[C@]1(Nc2ccc(C(=O)NO)cc2)CCN(c2ccc(Cl)cc2)C1=O,IC50,Cytochrome P450 2C19,> 50000 nM
same,IC50,Cytochrome P450 2D6,> 50000 nM
same,IC50,Cytochrome P450 1A2,> 50000 nM
same,IC50,Histone deacetylase 1,74100 nM
same,CLint scaled at 1 µM,[3],3 mL/min/kg
same,IC50,Cytochrome P450 2C9,> 50000 nM
same,EC50,[12],300 nM
same,AUC,Mus musculus [13],10500 µg/L/h
same,bioavailability,[14],55%
same,CLint scaled at 1 µM,[5],38 mL/min/kg
same,IC50,Cytochrome P450 3A4,> 50000 nM
same,Cmax,[15],626 ng/mL
same,solubility,[9],22 µg/mL
same,AUC,Mus musculus [16],1900 µg/L/h
same,IC50,[10],17 nM
same,IC50,Histone deacetylase 8,180 nM
same,half-life,[17],2.1 h
same,clearance,[11],87 mL/min/kg
